Laboratory results from patent US7122686B2, “Analogs of discodermolide and dictyostatin-1, intermediates therefor and methods of synthesis thereof” (University of Pittsburgh, priority 2002, dated 2006).
Entries after “also recorded” stand apart in the source; their conditions may differ.

Experiments:
tubulin = experiment: Tubulin polymerization (microtubule stabilizing activity); type: biochemical, bovine; settings: in comparison to 10 μM paclitaxel; turbidity, cold-induced disassembly
Experimental: Tubulin Polymerization.[32] Tubulin assembly was followed in a Beckman-Coulter 7400 spectrophotometer, equipped with an electronic Peltier temperature controller, reading absorbance (turbidity) at 350 nm. Reaction mixtures (0.25 mL final volume) contained tubulin (final concentration 10 μM; 1 mg/mL), monosodium glutamate (0.8 M from a stock solution adjusted to pH 6.6 with HCl), DMSO (final volume 4% v/v), and differing concentrations of test agent where indicated. Reaction mixtures without test agent were cooled to 0° C. and added to cuvettes held at 0.25–0.5° C. in the spectrophotometer. Test agent in DMSO was then rapidly mixed in the reaction mixture. Each run contained one positive control (paclitaxel, 10 μM final concentration) and one negative control (DMSO only). Baselines were established at 0.25–2.5° C. and temperature was rapidly raised to 30° C. (in approximately 1 min) and held there for 20 min.

MDA-MB231 (breast) = experiment: Cell growth inhibition, MDA-MB231 (breast); type: cell-based, human; settings: for GI50: Homo sapiens, MDA-MB-231, 72 h, read-out: GI50 (μM) MDA-MB231 (breast); for 50% growth inhibitory concentration: human breast cancer cells
Experimental: (§1) Cell Growth Inhibition[34] Cells were plated (500–2000 cells/well depending on the cell line) in 96-well microplates, allowed to attach and grow for 48 h, then treated with vehicle (4% DMSO, a concentration that allowed doubling times of 24 h or less) or test agent (50, 10, 2, 0.4 and 0.08 μM for the new agents; 0.001, 0.005, 0.010, 0.020 and 0.100 μM for paclitaxel and discodermolide) for the given times. One plate consisted of cells from each line used for a time zero cell number determination. The other plates in a given determination contained eight wells of control cells, eight wells of medium and each agent concentration tested in quadruplicate. Cell numbers were obtained spectrophotometrically (absorbance at 490 nm minus that at 630 nm) in a Dynamax plate reader after treatment with 3-(4,5-dimethylthiazol-2-yl)-5-(3-carboxymethoxyphenyl)-2-(4-sulfophenyl)-2H-tetrazolium (MTS) using phenazine methanesulfonate as the electron acceptor. After initial screening with the above 5-fold dilutions, fifty percent growth inhibitory concentration (GI50) values were determined for each agent by repeating the screen using 2-fold dilutions (five concentrations) centered on the initial estimated GI50 concentration, again in quadruplicate.

PC3 (prostate) = experiment: Cell growth inhibition, PC3 (prostate); type: cell-based; settings: Homo sapiens, 72 h, read-out: GI50 (μM) PC3 (prostate)
Experimental: as §1

2008 (ovarian) = experiment: Cell growth inhibition, 2008 (ovarian); type: cell-based, human; settings: for GI50: Homo sapiens, 72 h, read-out: GI50 (μM) 2008 (ovarian); for 50% growth inhibitory concentration: human ovarian cancer cells
Experimental: as §1

[1] = system: paclitaxel binding site on tubulin; experiment: Paclitaxel binding site inhibition assay ([3H]paclitaxel displacement); set-up: species or system bovine
Experimental: Paclitaxel binding site inhibition assay. A stock solution of [^3H]paclitaxel (26.8 μM, 16.2 Ci/mmol), obtained from the NCI, was prepared in 37% (v/v) DMSO. The test agents were prepared in 25% (v/v) DMSO-0.75 M monosodium glutamate (prepared from a 2M stock solution adjusted to pH 6.6 with HCl). The radiolabeled paclitaxel and test agents, as indicated in terms of final concentrations, were mixed in equal volumes and warmed to 37° C. A reaction mixture (50 μL) containing 0.75 M monosodium glutamate, 4.0 μM tubulin, and 40 μM ddGTP (a non-hydrolyzable analog of GTP) was prepared and incubated at 37° C. for 30 min to preform microtubules. An equivalent volume of drug mixture with [^3H]paclitaxel was added to preformed polymer and incubated for 30 min at 37° C. Bound [^3H]paclitaxel was separated from free drug by centrifugation of the reaction mixtures at 14000 rpm for 20 min at room temperature. Non-specific binding was determined by addition of a 12-fold excess of docetaxel. Radioactive counts from the supernatant (50 μL) were determined by scintillation spectrometry. Bound [^3H]paclitaxel was calculated from the following: total paclitaxel added to each reaction mixture minus the paclitaxel present in the supernatant (free drug). The % bound values were normalized to the control values with no inhibitor added.

SMILES	Tubulin polymerization-inducing properties (FIGS. 6A-D, in words) (tubulin)	50% growth inhibitory concentration (MDA-MB231 (breast))	50% growth inhibitory concentration (2008 (ovarian))	further results
C=C/C=C\[C@H](C)[C@H](OC(N)=O)[C@@H](C)[C@H](O)CC/C=C\[C@H](C)[C@H](O)[C@@H](C)/C=C\CC[C@@H]1OC(=O)[C@H](C)[C@@H](OCOC)[C@H]1C [Compound 41, Carbamic acid, (1S,2S,3R,6Z,8S,9S,10S,11Z)-3,9-dihydroxy-14-[(2S,3S,4S,5R)-4-methoxymethoxy-3,5-dimethyl-6-oxotetrahydropyran-2-yl]-2,8,10-trimethyl-1-[(1S,2Z)-1-methylpenta-2,4-dienyl]tetradeca-6,11-dienyl ester]	more rapid polymer-inducing and cold-resistant properties; also recorded: most potent among these analogs	submicromolar	–	GI50 (MDA-MB231 (breast)): 0.87 ± 0.21 µM; GI50 (PC3 (prostate)): 1.8 ± 0.9 µM; GI50 (2008 (ovarian)): 0.65 ± 0.25 µM; Displacement of [3H]paclitaxel from microtubules (in words) ([1]; 2-fold molar excess of test agent): better than paclitaxel and at almost the same potency as discodermolide
C=C/C=C\[C@H](C)[C@H](OC(N)=O)[C@@H](C)[C@H](O)CC/C=C\[C@H](C)[C@H](O)[C@@H](C)/C=C\CC[C@@H]1O[C@@H](OC)[C@H](C)[C@@H](OCOC)[C@H]1C [Compound 42, Carbamic acid, (1S,2S,3R,6Z,8S,9S,10S,11Z)-3,9-dihydroxy-14-[(2S,3S,4S,5R,6R)-6-methoxy-4-methoxymethoxy-3,5-dimethyltetrahydropyran-2-yl]-2,8,10-trimethyl-1-[(1S,2Z)-1-methylpenta-2,4-dienyl]tetradeca-6,11-dienyl ester]	more rapid polymer-inducing and cold-resistant properties	–	–	GI50 (MDA-MB231 (breast)): 3.4 ± 0.8 µM; GI50 (PC3 (prostate)): 15 ± 3 µM; GI50 (2008 (ovarian)): 4.7 ± 0.6 µM
C=CC=C[C@H](C)[C@H]1OC(=O)CCCCCCCCC=C[C@H](C)[C@H](O)[C@@H](C)C=CCC[C@@H](O)[C@H]1C [Compound 43, (1S,13S,14S,15S,20R,21R,22R)-14,20-Dihydroxy-13,15,21-trimethyl-22-(1-methylpenta-2,4-dienyl)-oxacyclodocosa-11,16-dien-2-one]	–	15 to 30 µM	15 to 30 µM	–
C=CC=C[C@H](C)[C@@H](O)[C@H](C)[C@H](O)CCC=C[C@H](C)[C@@H](O)[C@@H](C)C=CCCCCCCCCCO [Compound 47, (12S,13S,14S,19R,20R,21R,22S)-12,14,20,22-Tetramethylhexacosa-10,15,23,25-tetraene-1,13,19,21-tetraol]	–	15 to 30 µM	15 to 30 µM	–
C=CC=C[C@H](C)[C@@H](O)[C@H](C)[C@H](O)CCC=C[C@H](C)[C@@H](O)[C@@H](C)C=CCCCCCCCCC(=O)OC [Compound 48, (12S,13S,14S,19R,20R,21R,22S)-13,19,21-Trihydroxy-12,14,20,22-tetramethylhexacosa-10,15,23,25-tetraenoic acid methyl ester]	–	15 to 30 µM	15 to 30 µM	–
C=CC=C[C@H](C)[C@@H](O)[C@H](C)[C@H](O)CCC=C[C@H](C)[C@@H](O)[C@@H](C)C=CCCCCCCCCC(=O)O [Compound 49, (12S,13S,14S,19R,20R,21R,22S)-13,19,21-Trihydroxy-12,14,20,22-tetramethylhexacosa-10,15,23,25-tetraenoic acid]	–	> 50 µM	> 50 µM	–
C=CC=CC(C)[C@H]1OC(=O)C=CC=C[C@@H](C)[C@H](O)CCC=C[C@H](C)[C@H](O)[C@@H](C)C=CCC[C@@H](O)[C@H]1C (stereo partly drawn) [Compound 54, (7R,8R,13S,14S,15S,20R,21R,22R,23S)-8,14,20-Trihydroxy-7,13,15,21-tetramethyl-22-(1-methylpenta-2,4-dienyl)-oxacyclodocosa-3,5,11,16-tetraen-2-one]	–	about 1 μM	about 1 μM	[3H]paclitaxel displacement potency relative to discodermolide ([1]; [3H]paclitaxel stoichiometrically bound to microtubules): about ⅓
C=C/C=C\[C@H](C)[C@H](OC(N)=O)[C@@H](C)[C@H](O)[C@@H](C)C/C(C)=C\[C@H](C)[C@@H](O)[C@@H](C)/C=C\[C@@H](O)C[C@@H]1OC(=O)[C@H](C)[C@@H](O)[C@H]1C [discodermolide, (+)-discodermolide]	superior to paclitaxel	–	–	–
